Laboratory results from patent US20110293525A1, “TUMOR STEM CELLS” (BOARD OF TRUSTEES OF THE UNIVERSITY OF ILLINOIS, priority 2010, published 2011).

Key:
[1] = tested on: A549 parent and A549-HNO cells
Procedure: (§1) Exposure to Radicals: Cells were exposed to varying concentrations of hydrogen peroxide to determine if the adapted cells were resistant to high free radical environments generated by oxygen-based free radicals. Parent and adapted cells were seeded (100 μL) into 96-well microtiter plates in the appropriate media (parent cells in media without NO donor, HNO cells in media supplemented with 600 μM DETA-NONOate) and incubated overnight, reaching approximately 70% confluency by the following day. Cells were treated with varying concentrations (0-1.78 mM) of hydrogen peroxide (30% w/w solution, Sigma H1009, Sigma-Aldrich Corp., St. Louis, Mo., USA) and incubated at 37° C. for an additional 24 h. MTT cell viability/proliferation assays were then performed, as described above. A minimum of four replicate wells were measured for each cell line at each concentration, and assays were repeated in triplicate. Data were normalized against the mean of the untreated control cells, and values lying outside of two standard deviations were removed. Data were plotted as the mean normalized absorbance±standard error.

[2] = tested on: BT-20 parent and HNO cells
Procedure: as §1

[3] = tested on: HNSCC parent and HNO cells; details: 24 h exposure, HNSCC cell lines
Procedure: as §1

[4] = tested on: Hs578t parent and HNO cells
Procedure: as §1

[5] = tested on: MCF-7 parent and HNO cells
Procedure: as §1

[6] = tested on: SCC016 parent and HNO cells
Procedure: as §1

[7] = tested on: SCC040 parent and HNO cells
Procedure: as §1

[8] = tested on: SCC056 parent and HNO cells
Procedure: as §1

[9] = tested on: SCC114 parent and HNO cells
Procedure: as §1

[10] = tested on: SCC116 parent and HNO cells
Procedure: as §1

[11] = tested on: T-47D parent and HNO cells
Procedure: as §1

[12] = tested on: four breast adenocarcinoma cell line pairs, parent and HNO cells; details: 24 h exposure, T-47D, Hs578T, BT-20, MCF-7 pairs
Procedure: as §1

tumor cell lines = test: MTT viability after 72 h exposure to 0-600 μM DETA-NONOate; type: cell-based; details: doses 0-600 μM
Procedure: (§2) Viability of Long Term NO Adapted Cultures: Cells from each of the cell lines were seeded (100 μL) into 96-wellmicrotiter plates and grown for 24 h, to ˜70% confluency. The media was then removed, and the cells were treated with 100-μL media containing varying concentrations (0-600 μM) of DETA-NONOate. Following an additional 72-h incubation period, cell proliferation/viability was assessed using the 3-(4,5-dimethylthiazol-2-yl)-2,5-diphenyltetrazolium bromide (MTT) assay. Media was removed from each well, and 100 μL of 2 mg/mL of MTT (Sigma-Aldrich Corp., St. Louis, Mo. USA) in phosphate buffer saline (PBS) was added. Plates were then placed in an incubator (37° C.) for 5 h, during which time purple formazan crystals formed upon the reaction of the MTT with mitochondrial dehydrogenases of viable cells. Following the incubation period, the MTT solution was removed, and 100 μL of dimethyl sulfoxide (DMSO) was added. The absorbance of the resulting purple solution in each well was read (540 nm) using a SpectraMax® Plus 384 spectrophotometer (Molecular Devices, Inc., Sunnyvale, Calif., USA). Each experiment was independently conducted a minimum of three times, and a minimum of four replicate wells were tested for each cell line at each concentration. Data were normalized to the mean optical density of the untreated control cells. […]

[13] = tested on: five HNSCC cell lines, parent cells; test: MTT viability/proliferation in media containing 600 μM DETA-NONOate; type: cell-based, human
Procedure: as §2

parent A549 cells = test: as above; type: cell-based, human; details: 600 μM donor, 72 hour period
Procedure: as §2

LP07 parent cells = test: MTT viability/proliferation in media containing 300 μM DETA-NONOate; type: cell-based, mouse; details: LP07 cell line
Procedure: as §2

[14] = buffer, pH 7.4; cited from earlier work

Row | Molecule | concentrations at which both parent and HNO cells were killed ([1]; 24 h exposure, A549 and A549-HNO) | H2O2 Resistance: highest concentration of H2O2 that the HNO cell lines grow in which the parent cell lines do not survive ([1]; A549) | H2O2 Resistance: highest concentration of H2O2 that the HNO cell lines grow in which the parent cell lines do not survive [2] | concentrations that killed both parent and HNO cells [3] | H2O2 Resistance: highest concentration of H2O2 that the HNO cell lines grow in which the parent cell lines do not survive [4] | H2O2 Resistance: highest concentration of H2O2 that the HNO cell lines grow in which the parent cell lines do not survive [5] | H2O2 Resistance: highest concentration of H2O2 that the HNO cell lines grow in which the parent cell lines do not survive [6] | H2O2 Resistance: highest concentration of H2O2 that the HNO cell lines grow in which the parent cell lines do not survive [7] | H2O2 Resistance: highest concentration of H2O2 that the HNO cell lines grow in which the parent cell lines do not survive [8] | H2O2 Resistance: highest concentration of H2O2 that the HNO cell lines grow in which the parent cell lines do not survive [9] | H2O2 Resistance: highest concentration of H2O2 that the HNO cell lines grow in which the parent cell lines do not survive [10] | H2O2 Resistance: highest concentration of H2O2 that the HNO cell lines grow in which the parent cell lines do not survive [11] | concentrations at which both parent and HNO cells were killed [12] | minimum concentration studied that was completely lethal to the cells (tumor cell lines) | survival of parent cells in media containing the NO donor [13] | survival of parent cells placed directly into HNO environment (parent A549 cells) | survival of parent cells in media containing the NO donor (LP07 parent cells) | half-life [14]
1 | OO [H2O2, hydrogen peroxide] | ≥ 0.055 mM | 0.055 mM | 0.0069 mM | above 55 μM | 0.0069 mM | 0.014 mM | 0.028 mM | 0.028 mM | 0.028 mM | 0.55 mM | 0.028 mM | 0.028 mM | ≥ 110 µM | – | – | – | – | –
2 | (Z)-1-[2-(2-aminoethyl)-N-(2-ammonioethyl) amino]diazen-1-ium-1,2-diolate [DETA-NONOate] | – | – | – | – | – | – | – | – | – | – | – | – | – | 600 µM | completely killed | not able to survive | Analogous results | approximately 24 h
